Our source for the T/C values is PubChem BioAssay AID248 (DTP/NCI, 2004).

The experiment has as its system L1210 leukemia ip in BDF1 mice, survival T/C. Put plainly: NCI In Vivo Anticancer Drug Screen. Data for tumor model L1210 Leukemia (intraperitoneal) in B6D2F1 (BDF1) mice. Conditions: endpoint: mean survival time, higher = longer survival. The method in brief: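 Transplantable tumor model; survival measured in treated vs vehicle control mice. Value = treated/control.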

The mark [1] stands for this setting: dose: 100.0 mg/kg/injection, schedule: Q01DX009 (ip), vehicle: Klucel (hydroxypropylcellulose) (HPC).
Setting [2] is: dose: 200.0 mg/kg/injection, schedule: Q01DX009 (ip), vehicle: Klucel (hydroxypropylcellulose) (HPC).
Where [3] appears, read: dose: 400.0 mg/kg/injection, schedule: Q01DX009 (ip), vehicle: Klucel (hydroxypropylcellulose) (HPC).
Setting [4] is: dose: 75.0 mg/kg/injection, schedule: Q01DX001 (ip), vehicle: saline.
Setting [5] is: dose: 150.0 mg/kg/injection, schedule: Q01DX001 (ip), vehicle: saline.
Setting [6] is: dose: 100.0 mg/kg/injection, schedule: Q04DX003 (ip), vehicle: saline with Tween-80.
[7] abbreviates: dose: 100.0 mg/kg/injection, schedule: Q01DX005 (ip), vehicle: saline.
Where [8] appears, read: dose: 200.0 mg/kg/injection, schedule: Q01DX005 (ip), vehicle: saline.
The mark [9] stands for this setting: dose: 100.0 mg/kg/injection, schedule: Q01DX009 (ip), vehicle: saline with Tween-80.
Setting [10] is: dose: 200.0 mg/kg/injection, schedule: Q01DX009 (ip), vehicle: saline with Tween-80.
[11] abbreviates: dose: 400.0 mg/kg/injection, schedule: Q01DX009 (ip), vehicle: saline with Tween-80.
Setting [12] is: dose: 50.0 mg/kg/injection, schedule: Q01DX001 (ip), vehicle: saline.
Where [13] appears, read: dose: 100.0 mg/kg/injection, schedule: Q01DX001 (ip), vehicle: saline.
Setting [14] is: dose: 200.0 mg/kg/injection, schedule: Q01DX001 (ip), vehicle: saline.
The mark [15] stands for this setting: dose: 400.0 mg/kg/injection, schedule: Q01DX001 (ip), vehicle: saline.
[16] abbreviates: dose: 100.0 mg/kg/injection, schedule: Q04DX003 (ip), vehicle: Klucel (hydroxypropylcellulose) (HPC).
Setting [17] is: dose: 200.0 mg/kg/injection, schedule: Q04DX003 (ip), vehicle: Klucel (hydroxypropylcellulose) (HPC).
Where [18] appears, read: dose: 400.0 mg/kg/injection, schedule: Q04DX003 (ip), vehicle: Klucel (hydroxypropylcellulose) (HPC).
Setting [19] is: dose: 200.0 mg/kg/injection, schedule: Q04DX003 (ip), vehicle: saline with Tween-80.
The mark [20] stands for this setting: dose: 400.0 mg/kg/injection, schedule: Q04DX003 (ip), vehicle: saline with Tween-80.

The structures appear in SMILES notation. Values joined by “and” are separate entries in the source; they are usually repeats but may differ in a detail not shown here. Equal entries are not always repeated. Toxic doses and inconclusive results are not listed. Square brackets hold non-standard residues; d marks the D form. Peptide text beside a SMILES is read from it. * marks the point of attachment. Cbz = O=C(OCc1ccccc1)*; OBn = c1ccc(CO*)cc1; Sar = CNCC(=O)O

Consider `O=C1CC(O)(c2ccccc2)C2(c3ccccc3)OC2O1` (stereo not drawn), for which the T/C (dose: 100.0 mg/kg/injection, schedule: Q01DX001 (ip), vehicle: Klucel (hydroxypropylcellulose) (HPC)) is 101 % of control; the T/C under setting [1] is 96 % of control; the T/C (dose: 200.0 mg/kg/injection, schedule: Q01DX001 (ip), vehicle: Klucel (hydroxypropylcellulose) (HPC)) is 101 % of control; the T/C under setting [2] is 93 % of control; the T/C (dose: 400.0 mg/kg/injection, schedule: Q01DX001 (ip), vehicle: Klucel (hydroxypropylcellulose) (HPC)) was 101 % of control; the T/C under setting [3] was 95 % of control.

As for `CN1CCC(Br)(C(=O)c2ccccc2)CC1`, the T/C by setting is: under setting [4], 101 % of control; under setting [5], 93 % of control.

Regarding `Cc1c(CNc2ccc(C(=O)NC(CC(=O)O)CC(=O)O)cc2)ccc2nc(N)nc(N)c12`, the T/C by setting is: (dose: 0.11 mg/kg/injection, schedule: Q01DX009 (ip), vehicle: saline) 97 % of control; (dose: 0.15 mg/kg/injection, schedule: Q01DX009 (ip), vehicle: saline) 107 % of control; (dose: 0.17 mg/kg/injection, schedule: Q01DX009 (ip), vehicle: saline) 178 % of control; (dose: 0.27 mg/kg/injection, schedule: Q01DX009 (ip), vehicle: saline) 161 % of control; (dose: 0.62 mg/kg/injection, schedule: Q01DX009 (ip), vehicle: saline) 156 % of control and 187 % of control; (dose: 1.25 mg/kg/injection, schedule: Q01DX009 (ip), vehicle: saline) 112 % of control and 121 % of control. For the same compound, the T/C is, setting by setting: (dose: 2.5 mg/kg/injection, schedule: Q04DX003 (ip), vehicle: saline) 175 % of control; (dose: 4.4 mg/kg/injection, schedule: Q01DX009 (ip), vehicle: other) 91 % of control; (dose: 10.0 mg/kg/injection, schedule: Q01DX001 (ip), vehicle: other) 173 % of control; (dose: 10.0 mg/kg/injection, schedule: Q01DX001 (ip), vehicle: saline) 168 % of control; (dose: 10.0 mg/kg/injection, schedule: Q04DX003 (ip), vehicle: saline) 102 % of control; (dose: 20.0 mg/kg/injection, schedule: Q01DX001 (ip), vehicle: saline) 151 % of control.

In the case of `CCCCCCCCCCCCCCCC(=O)N(CCCCN(CCCN(C)C)C(=O)CCCCCCCCCCCCCCC)CCCN(C)C`, the T/C under setting [6] is 91 % of control.

With `CCOCCNCC1OC(OC)C2OC(C)(C)OC12` (stereo not drawn), the T/C by setting is: under setting [7], 103 % of control; under setting [8], 103 % of control.

For the compound `Cc1ccc(S(=O)(=O)OC(c2ccccc2)c2ccccc2)cc1`, the T/C (dose: 25.0 mg/kg/injection, schedule: Q04DX002 (ip), vehicle: Klucel (hydroxypropylcellulose) (HPC)) is 97 % of control; the T/C (dose: 50.0 mg/kg/injection, schedule: Q04DX002 (ip), vehicle: Klucel (hydroxypropylcellulose) (HPC)) is 97 % of control; the T/C (dose: 100.0 mg/kg/injection, schedule: Q04DX002 (ip), vehicle: Klucel (hydroxypropylcellulose) (HPC)) was 93 % of control.

With `CC(C)COC(=O)C1OC1(C)c1ccccc1` (stereo not drawn), the T/C was 100 % of control under setting [9], 106 % of control under setting [10] and 103 % of control under setting [11].

Take `CCCSc1ccc(N2C(N)=NC(N)=NC2(C)C)cc1`: the T/C by setting is: (dose: 12.5 mg/kg/injection, schedule: Q01DX001 (ip), vehicle: saline) 98 % of control; (dose: 12.5 mg/kg/injection, schedule: Q04DX003 (ip), vehicle: saline) 98 % of control; (dose: 18.75 mg/kg/injection, schedule: Q01DX009 (ip), vehicle: saline with Tween-80) 101 % of control; (dose: 25.0 mg/kg/injection, schedule: Q01DX001 (ip), vehicle: saline) 108 % of control; (dose: 25.0 mg/kg/injection, schedule: Q04DX003 (ip), vehicle: saline) 93 % of control; (dose: 37.5 mg/kg/injection, schedule: Q01DX009 (ip), vehicle: saline with Tween-80) 96 % of control. The T/C is, setting by setting: under setting [12], 108 % of control; (dose: 50.0 mg/kg/injection, schedule: Q04DX003 (ip), vehicle: saline) 104 % of control; (dose: 75.0 mg/kg/injection, schedule: Q04DX003 (ip), vehicle: saline) 97 % of control.

With `O=c1[nH]c2ccc([N+](=O)[O-])cc2c2nc3ccccc3n12`, the T/C by setting is: (dose: 50.0 mg/kg/injection, schedule: Q01DX009 (ip), vehicle: Klucel (hydroxypropylcellulose) (HPC)) 95 % of control; under setting [1], 101 % of control; under setting [2], 95 % of control.

In the case of `Clc1ccc2ccc(Cl)cc2c1`, the T/C runs as follows: (dose: 100.0 mg/kg/injection, schedule: Q01DX001 (ip), vehicle: carboxymethylcellulose (CMC)) 103 % of control; (dose: 200.0 mg/kg/injection, schedule: Q01DX001 (ip), vehicle: carboxymethylcellulose (CMC)) 95 % of control; (dose: 400.0 mg/kg/injection, schedule: Q01DX001 (ip), vehicle: carboxymethylcellulose (CMC)) 94 % of control.

In the case of `CCOC(=O)C1(C)CCN(C)C1=O` (stereo not drawn), the T/C is, setting by setting: under setting [13], 96 % of control; under setting [14], 96 % of control; under setting [15], 96 % of control.

In the case of `CC(C)Cc1ccc(C(=O)O)cc1`, the T/C reads like this: under setting [1], 94 % of control; under setting [16], 97 % of control; under setting [2], 94 % of control; under setting [17], 108 % of control; under setting [3], 94 % of control; under setting [18], 102 % of control.

Consider `NC(=O)c1n[nH]c(C2OCC(O)C2O)c1I` (stereo not drawn), for which the T/C is 100 % of control under setting [7] and 108 % of control under setting [8].

As to `CN(CC(=O)OCc1ccccc1)C(=O)CNC(=O)CNC(=O)OCc1ccccc1` (Cbz-Gly-Gly-[Sar]-OBn), the T/C is, setting by setting: under setting [6], 92 % of control; under setting [19], 90 % of control; under setting [20], 95 % of control.

`O=C(Nc1cccc(O)c1)Oc1cccc(Cl)c1`: the T/C reads like this: under setting [9], 98 % of control; under setting [10], 102 % of control; under setting [11], 106 % of control.

As to `COc1ccc(/C=C(\C#N)c2ccc(OC)cc2)cc1`, the T/C under setting [1] was 96 % of control; the T/C under setting [16] is 98 % of control; the T/C under setting [2] is 101 % of control; the T/C under setting [17] is 91 % of control; the T/C under setting [3] is 96 % of control; the T/C under setting [18] is 93 % of control.

As for `Cc1cc(C)c2c(C#N)cn(-c3ccc(Cl)cc3)c2n1`, the T/C is, setting by setting: under setting [13], 87 % of control; under setting [14], 97 % of control; under setting [15], 91 % of control.

With `O=S1CCCCO1` (stereo not drawn), the T/C runs as follows: (dose: 37.5 mg/kg/injection, schedule: Q01DX009 (ip), vehicle: saline) 96 % of control; under setting [4], 101 % of control; (dose: 75.0 mg/kg/injection, schedule: Q01DX009 (ip), vehicle: saline) 91 % of control; under setting [5], 101 % of control; (dose: 150.0 mg/kg/injection, schedule: Q01DX009 (ip), vehicle: saline) 96 % of control; (dose: 300.0 mg/kg/injection, schedule: Q01DX001 (ip), vehicle: saline) 104 % of control.

For `CC1Oc2ccccc2-c2c(-c3ccccc3)nnc(-c3ccccc3)c21` (stereo not drawn), the T/C (dose: 100.0 mg/kg/injection, schedule: Q04DX003 (ip), vehicle: gum acacia) was 95 % of control; the T/C (dose: 200.0 mg/kg/injection, schedule: Q04DX003 (ip), vehicle: gum acacia) was 102 % of control; the T/C (dose: 400.0 mg/kg/injection, schedule: Q04DX003 (ip), vehicle: gum acacia) is 98 % of control.

As for `Cc1ccc(N=C(N)NC#N)cc1C`, the T/C under setting [6] is 102 % of control, the T/C under setting [19] is 102 % of control and the T/C under setting [20] was 102 % of control.

For `CN(C)CCSSCCN(C)C`, the T/C is, setting by setting: under setting [12], 102 % of control; under setting [13], 104 % of control; under setting [14], 96 % of control.

`CCCCCCC(=O)Nc1cccc(OC(=O)NC)c1`: the T/C runs as follows: under setting [6], 98 % of control; under setting [19], 96 % of control; under setting [20], 88 % of control.
